These results are taken from US20230141863A1, “Small Molecule Inhibitors Targeting the Sodium Channel Tamoxifen Receptor and Uses Thereof” (Northwestern University, priority 2021, published 2023).

“Also recorded” adds a separate entry of the source.

Test [1] has as its target Nav1.7 DII S969A and DIV D1761A (Homo sapiens, UniProt Q15858). In words: Voltage clamp of Nav1.7 with alanine substitutions in DII and DIV. Type of test: cell-based. Conditions: range over DII S969A and DIV D1761A. Here is the method: (§1) While no clear drug-receptor interactions were determined within Siteout, the S6 E220 side chains formed hydrogen bond interactions with the ether and amine moieties of the ND-Tam molecules found at Sitein. […] After structural alignment of the crystalized NavMs-Tam complex with the cryo EM Nav1.7+b1+b2 channel coordinates, the S6 side chain hydroxyl in DII (S969) and the carboxyl side chains in DIII (E1458) and DIV (D1761) observed in the human channel were nearly superimposable with E220 of the prokaryotic Nav subunits. In addition, the distances from the drug ether and amines were within acceptable distances (2.8-3.1 Å) for hydrogen bond formation for all three site chains (FIG. 2B). […]
(§2) Plasmids encoding the human version of channels Nav1.1, 1.6, and 1.7 were co-transfected with TRES GFP into HEK cell lines for whole-cell voltage clamp studies (American Type Culture Collection). […] Plasma membrane currents were recorded using borosilicate glass electrodes polished to resistances of […]. Sodium currents conducted by heterologously expressed Navs were recorded using the following solutions (in mM). […] Endogenous DRG sodium currents were recorded using an intracellular solution consisting of 70 CsCl, 70 CsF, 2 EGTA, 5 HEPES, and 5 NaCl; the pH was adjusted to 7.4 with CsOH. […]

Test [2] has as its target T1, Nav1.7 D1458A in domain III (Homo sapiens, UniProt Q15858, D1458A).
T1 construct: expressed in transfected cells
In words: Voltage clamp of Nav1.7 with alanine substitution in domain III. Type of test: cell-based. On the procedure: as §1, §2

Test [3] deals with mice with knee hyperalgesia post DMM surgery. Kind of test: In vivo osteoarthritis pain model (DMM), knee hyperalgesia after intra-articular injection. Set-up: species or system mouse.
The target of a further test is T2, estrogen receptor (ER) (Homo sapiens, UniProt P03372).
T2 sequence (P03372 1-595): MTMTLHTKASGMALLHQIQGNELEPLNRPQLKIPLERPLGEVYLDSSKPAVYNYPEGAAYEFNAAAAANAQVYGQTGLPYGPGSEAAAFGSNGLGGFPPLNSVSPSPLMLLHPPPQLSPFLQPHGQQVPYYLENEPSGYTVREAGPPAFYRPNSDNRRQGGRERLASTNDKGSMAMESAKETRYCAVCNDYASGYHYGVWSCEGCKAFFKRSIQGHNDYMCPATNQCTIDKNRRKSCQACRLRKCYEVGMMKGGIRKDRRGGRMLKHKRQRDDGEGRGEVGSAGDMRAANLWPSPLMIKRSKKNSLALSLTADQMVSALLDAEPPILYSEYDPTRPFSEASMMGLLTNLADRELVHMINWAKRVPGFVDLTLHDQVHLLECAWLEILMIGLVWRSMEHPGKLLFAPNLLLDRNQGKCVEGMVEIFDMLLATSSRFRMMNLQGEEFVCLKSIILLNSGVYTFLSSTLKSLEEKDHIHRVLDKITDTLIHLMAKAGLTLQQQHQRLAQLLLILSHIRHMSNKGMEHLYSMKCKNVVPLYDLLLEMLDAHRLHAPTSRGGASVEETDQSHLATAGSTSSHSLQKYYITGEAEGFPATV
Particulars: reference 35; cited from earlier work.

Nav1.7 DII S969A and DIV D1761A, sequence (Q15858 whole entry S969A, form open): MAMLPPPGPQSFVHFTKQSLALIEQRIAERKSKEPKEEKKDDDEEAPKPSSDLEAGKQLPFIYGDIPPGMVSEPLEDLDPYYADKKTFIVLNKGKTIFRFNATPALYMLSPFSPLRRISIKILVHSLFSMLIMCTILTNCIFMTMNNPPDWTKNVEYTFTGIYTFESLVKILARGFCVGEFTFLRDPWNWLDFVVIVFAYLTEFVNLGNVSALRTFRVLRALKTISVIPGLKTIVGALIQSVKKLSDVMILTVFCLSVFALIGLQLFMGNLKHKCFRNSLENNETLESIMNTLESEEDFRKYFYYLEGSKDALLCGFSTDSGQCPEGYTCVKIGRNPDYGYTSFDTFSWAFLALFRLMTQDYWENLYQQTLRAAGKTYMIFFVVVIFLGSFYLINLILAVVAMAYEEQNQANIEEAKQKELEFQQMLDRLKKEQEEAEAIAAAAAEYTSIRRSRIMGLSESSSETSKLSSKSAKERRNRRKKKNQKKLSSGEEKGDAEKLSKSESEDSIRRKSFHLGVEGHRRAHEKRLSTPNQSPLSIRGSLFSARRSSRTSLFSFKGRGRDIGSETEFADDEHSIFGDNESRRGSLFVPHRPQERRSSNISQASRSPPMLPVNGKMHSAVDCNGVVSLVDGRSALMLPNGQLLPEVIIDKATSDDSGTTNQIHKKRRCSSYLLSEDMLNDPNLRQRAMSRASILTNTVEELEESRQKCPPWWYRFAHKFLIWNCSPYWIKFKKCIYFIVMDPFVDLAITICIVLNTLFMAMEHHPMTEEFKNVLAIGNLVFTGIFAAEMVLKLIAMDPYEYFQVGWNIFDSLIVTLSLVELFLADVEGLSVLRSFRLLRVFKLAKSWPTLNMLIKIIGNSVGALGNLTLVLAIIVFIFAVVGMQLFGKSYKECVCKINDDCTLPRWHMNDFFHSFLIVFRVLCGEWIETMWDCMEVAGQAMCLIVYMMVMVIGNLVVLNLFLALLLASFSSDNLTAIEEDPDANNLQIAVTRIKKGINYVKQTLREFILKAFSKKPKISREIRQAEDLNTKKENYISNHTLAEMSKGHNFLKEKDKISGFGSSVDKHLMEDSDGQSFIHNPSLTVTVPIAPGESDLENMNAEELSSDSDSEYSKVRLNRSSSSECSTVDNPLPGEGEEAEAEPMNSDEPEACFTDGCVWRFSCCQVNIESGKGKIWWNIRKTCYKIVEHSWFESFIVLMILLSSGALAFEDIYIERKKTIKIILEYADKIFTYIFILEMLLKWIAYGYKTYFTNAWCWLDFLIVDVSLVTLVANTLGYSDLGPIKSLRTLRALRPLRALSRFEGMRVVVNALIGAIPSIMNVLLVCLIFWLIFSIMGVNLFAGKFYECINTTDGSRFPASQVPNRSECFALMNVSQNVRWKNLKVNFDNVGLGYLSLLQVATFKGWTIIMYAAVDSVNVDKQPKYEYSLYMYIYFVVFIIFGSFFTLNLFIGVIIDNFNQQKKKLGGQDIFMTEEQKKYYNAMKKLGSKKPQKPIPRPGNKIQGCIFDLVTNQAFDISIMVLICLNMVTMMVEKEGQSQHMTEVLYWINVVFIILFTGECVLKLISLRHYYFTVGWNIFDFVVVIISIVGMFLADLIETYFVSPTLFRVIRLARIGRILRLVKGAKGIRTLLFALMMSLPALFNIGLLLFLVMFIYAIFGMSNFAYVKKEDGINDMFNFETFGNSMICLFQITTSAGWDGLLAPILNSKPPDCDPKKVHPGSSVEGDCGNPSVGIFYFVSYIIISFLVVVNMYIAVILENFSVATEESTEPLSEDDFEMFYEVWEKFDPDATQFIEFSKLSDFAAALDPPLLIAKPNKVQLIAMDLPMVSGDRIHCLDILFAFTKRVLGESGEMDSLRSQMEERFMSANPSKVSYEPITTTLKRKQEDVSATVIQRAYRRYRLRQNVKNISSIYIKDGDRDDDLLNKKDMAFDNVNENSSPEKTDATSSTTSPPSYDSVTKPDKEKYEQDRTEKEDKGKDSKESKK
T1 sequence (Q15858 whole entry D1458A, the tested form may be a part): as the sequence (Q15858 whole entry S969A, form open) above, with A969S, D1458A counted along it

As for `CC/C(=C(\c1ccccc1)c1ccc(OCCNC)cc1)c1ccccc1` [ND-Tam, 2-[4-[(Z)-1,2-diphenylbut-1-enyl]phenoxy]-N-methylethanamine], the slope of concentration-dependence in test [1] is recorded as 1.3-1.4; in test [2], 2.2. Besides, the “knee hyperalgesia versus vehicle (in words)” value in test [3] (50 μM (~0.002 mg/kg) intra-articular, vehicle 50% EtOH, 30 minutes after injection, P=0.008) is recorded as “rapidly inhibited knee hyperalgesia pain compared to injection of vehicle; also recorded: provided relief from hyperalgesia compared to vehicle”. The “area under the curve analysis of withdrawal thresholds (in words)” value in test [3] (50 μM intra-articular, 0-3 hours after injection) is “performs similar to CBD and to lidocaine over time”. In test [3] (50 μM intra-articular, vehicle 0.1% DMSO, 30 minutes after injection), the “knee hyperalgesia versus vehicle, direct comparison study (in words)” value is listed as “effectively inhibited knee hyperalgesia”. The “knee withdrawal threshold versus vehicle control (in words)” value in test [3] (50 μM intra-articular, vehicle 0.1% DMSO, through 3 hours after injection) is reported as “remained elevated compared to vehicle control through 3 hours after injection”. Further, the “affinity for the ER, times lower than 4OH-Tam” value on estrogen receptor (ER) was around 100 times.
